9 molecules from patent publication US8357694B2, “Substituted 5,6-dihydro-6-phenylbenzo[F]isoquinolin-2-amine compounds” (ArQule, Inc., priority 2008, dated 2013) can be followed below.

One may read the IC50 as the concentration at which inhibition is half-maximal. One may read the melting point as the temperature of the solid-liquid transition.

Series [1] deals with RT112. Description: MTS cell kill assay, RT112. Type of series: cell-based. The conditions noted are these: Homo sapiens, RT-112, RT112. A general note: Formazan colour is commonly taken as a measure of viable cells.
Description: (§3) Cells were maintained at 37° C., 5% CO2 in DMEM media supplemented with 1% fetal bovine serum, penicillin/streptomycin and fungizone (Invitrogen). Cells were seeded into 96-well tissue culture plates at 3000 per well and cultured at 37° C. for 18 hours. Test compounds were dissolved and diluted to 300× in DMSO then diluted 1:40 in DMEM.
In series [2] the test system is RT4. Description: MTS cell kill assay, RT4. It counts as cell-based. The conditions noted are these: Homo sapiens, RT-4, RT4.
Description: as §3
The test system of series [3] is SNU-16. Description: MTS assay, SNU-16. The conditions noted are these: Homo sapiens. Type of series: cell-based.
Description: as §3
The next series has as its system AN3-CA. Description: MTS cell kill assay, AN3-CA. It counts as cell-based. The conditions noted are these: Homo sapiens.
Another series addresses T1, FGFR2 kinase (Homo sapiens, UniProt P21802, N549H).
T1 construct: purchased Millipore 14-742
Description: fluorescent ELISA FGFR2 kinase assay (biochemical). The method, then: The enzymatic assays described herein are conducted according to the following procedures from commercially available reagents. In one, non limiting, example, a fluorescent ELISA assay is used to identify and characterize inhibitors of FGFR2 kinase as described herein. This heterogeneous assay utilizes a biotinylated peptide with a tyrosine motif as a substrate and an anti-phospho-tyrosine antibody to measure phosphorylation of the substrate. […] The reaction is incubated for 60 minutes. As the reaction proceeds, FGFR2 phosphorylates tyrosines in the peptide. […] Peptides are captured for 30 minutes at room temperature, the phosphorylation of peptides continues during this phase. The reaction is stopped by washing the streptavidin-coated plate 6 times with TBST. […] Unbound anti-phospho-tyrosine antibody is removed by washing the streptavidin-coated plate 6 times with TBST. […] Unbound secondary antibody is removed by washing the streptavidin-coated plate 6 times with TBST.
(An ELISA detects its analyte on a solid surface through an enzyme-linked reagent.)

In series [4] the test system is KATO III. Description: MTS assay, KATO III. Type of series: cell-based. The conditions noted are these: Homo sapiens, read-out: MTS IC50.
Description: as §3
The subject of the next series is Ba/F3 parental cells. Description: MTS assay, Ba/F3 parental. The settings on record: Mus musculus, BaF3, read-out: MTS IC50.
Series [5] concerns SNU-16. Description: in vitro PD assay, SNU-16. It counts as cell-based. The settings on record: Homo sapiens.
For series [6], the system named is KATO III. Description: in vitro PD assay, KATO III. Type of series: cell-based. The conditions noted are these: Homo sapiens.
The subject of series [7] is SNU-16, Ba/F3-FGFR2 or Ba/F3 INSR tumors. Description: tumor growth in xenograft models. Type of series: in vivo. The conditions noted are these: subcutaneous tumors in nude mice; orally dosed once daily. On the procedure: (A) Tumor from cancer cells SNU-16, Ba/F3-FGFR2 or Ba/F3 INSR were established subcutaneously in nude mice. Tumor growth in nude mice orally dosed with the indicated dose of example 159, or vehicle control was determined. All regimens were administered once daily for the indicated number of days. Tumor sizes were evaluated periodically during treatment and are represented as the mean of tumor volume in mm3±SEM (n=10) (FIGS. 4A-C). Phosphorylation of FGFR2 (D) or ERK (E) was assessed for cells from tumors harvested at the indicated time points after a single oral administration of 250 mg/kg of Example 159 by immunohistochemistry.

In series [8] the test system is RT4. Description: combination cytotoxicity, RT4. Type of series: cell-based. The conditions noted are these: in combination with (3R,4R)-3-(5,6-dihydro-4H-pyrrolo[3,2,1-ij]quinolin-1-yl)-4-(1H-indol-3-yl)pyrrolidine-2,5-dione. From the text: (§1) The combination data of (R)-6-(2-fluorophenyl)-N-(3-(2-(4-(2-methoxyethyl)piperazin-1-yl)ethyl)phenyl)-5,6-dihydrobenzo[h]quinazolin-2-amine with a kinase inhibitor (3R,4R)-3-(5,6-dihydro-4H-pyrrolo[3,2,1-ij]quinolin-1-yl)-4-(1H-indol-3-yl)pyrrolidine-2,5-dione is shown in Table 28. The identity and tissue origin of cancer cell lines are indicated.

Series [9] concerns SNU-16. Description: combination cytotoxicity, SNU-16. Type of series: cell-based. The conditions noted are these: in combination with (3R,4R)-3-(5,6-dihydro-4H-pyrrolo[3,2,1-ij]quinolin-1-yl)-4-(1H-indol-3-yl)pyrrolidine-2,5-dione.
Source text: as §1

In another series the test system is Kato III cells. Description: cell cycle profile by FACS analyses. It counts as cell-based. The method, then:
Kato III cells were treated with example 159, or FGFR2 siRNA. Cell cycle profiles were assessed by FACS analyses (FIG. 3).
Background: In flow cytometry, cells or beads pass a laser one at a time.

The next series has as its system A549. Description: combination cytotoxicity, A549. The conditions noted are these: in combination with (3R,4R)-3-(5,6-dihydro-4H-pyrrolo[3,2,1-ij]quinolin-1-yl)-4-(1H-indol-3-yl)pyrrolidine-2,5-dione. Type of series: cell-based.
Source text: as §1

The subject of a further series is CALU-6. Description: combination cytotoxicity, CALU-6. It counts as cell-based. The conditions noted are these: in combination with (3R,4R)-3-(5,6-dihydro-4H-pyrrolo[3,2,1-ij]quinolin-1-yl)-4-(1H-indol-3-yl)pyrrolidine-2,5-dione.
Source text: as §1

For series [10], the system named is RT112. Description: combination cytotoxicity, RT112. The conditions noted are these: in combination with (3R,4R)-3-(5,6-dihydro-4H-pyrrolo[3,2,1-ij]quinolin-1-yl)-4-(1H-indol-3-yl)pyrrolidine-2,5-dione. Type of series: cell-based.
Source text: as §1

The next series concerns LS174T. Description: combination cytotoxicity, LS174T. Type of series: cell-based. The settings on record: in combination with (3R,4R)-3-(5,6-dihydro-4H-pyrrolo[3,2,1-ij]quinolin-1-yl)-4-(1H-indol-3-yl)pyrrolidine-2,5-dione.
Source text: as §1

The subject of another series is DU4475. Description: combination cytotoxicity, DU4475. Type of series: cell-based. The conditions noted are these: in combination with (3R,4R)-3-(5,6-dihydro-4H-pyrrolo[3,2,1-ij]quinolin-1-yl)-4-(1H-indol-3-yl)pyrrolidine-2,5-dione.
Source text: as §1

Another series relates to THP-1. Description: combination cytotoxicity, THP-1. It counts as cell-based. The conditions noted are these: in combination with (3R,4R)-3-(5,6-dihydro-4H-pyrrolo[3,2,1-ij]quinolin-1-yl)-4-(1H-indol-3-yl)pyrrolidine-2,5-dione.
Source text: as §1

The next series relates to FGFR2 in KATO III. Description: FGFR2 phosphorylation by immunoblotting, KATO III. It counts as cell-based. The settings on record: 0.3 μM to 10 μM for 2 h, then KGF stimulation for 15 min. The method, then:
(§2) Cells whose growth rely on FGFR2 as determined in Example 585 such as KATO III and SNU-16, were treated with increasing concentration of example 159, from 0.3 μM to 10 μM for 2 h, followed by stimulation with […] of KGF for 15 min.

The next series relates to CAKI-2. Description: combination cytotoxicity, CAKI-2. It counts as cell-based. The settings on record: in combination with (3R,4R)-3-(5,6-dihydro-4H-pyrrolo[3,2,1-ij]quinolin-1-yl)-4-(1H-indol-3-yl)pyrrolidine-2,5-dione.
Source text: as §1

A further series has as its system FGFR2 in SNU-16. Description: FGFR2 phosphorylation by immunoblotting, SNU-16. It counts as cell-based. The settings on record: 0.3 μM to 10 μM for 2 h, then KGF stimulation for 15 min. On the procedure: as §2
Setting [11] is: SNU-16, SNU-16, read-out: MTS cell kill data (IC50-μM) SNU-16.
The mark [12] stands for this setting: FGFR2 (N549H), read-out: Biochemical data (IC50-μM) FGFR2 (N549H).

Several values for one entry are separate records, joined by “and”; a condition that tells them apart may be missing. Identical values can stand only once. Counter-ions that a name gives are not always drawn. Like-named read-outs stand apart in the source and are kept apart here.

T1 sequence (P21802 456-770 N549H limits assumed): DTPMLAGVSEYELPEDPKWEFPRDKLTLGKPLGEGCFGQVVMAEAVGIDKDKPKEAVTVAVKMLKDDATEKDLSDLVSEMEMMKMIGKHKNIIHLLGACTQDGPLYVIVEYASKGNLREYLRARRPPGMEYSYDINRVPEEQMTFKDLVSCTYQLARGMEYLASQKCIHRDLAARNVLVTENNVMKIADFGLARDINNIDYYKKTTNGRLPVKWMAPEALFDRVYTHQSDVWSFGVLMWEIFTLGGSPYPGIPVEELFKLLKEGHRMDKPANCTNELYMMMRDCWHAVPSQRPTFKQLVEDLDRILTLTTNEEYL
Description for AN3-CA: as §3
Description for Ba/F3 parental cells: as §3

As for `CN1CCN(CCc2cccc(Nc3ncc4c(n3)-c3ccccc3[C@H](c3ccccc3F)C4)c2)CC1` [Example 161, (R)-6-(2-fluorophenyl)-N-(3-(2-(4-methylpiperazin-1-yl)ethyl)phenyl)-5,6-dihydrobenzo[h]quinazolin-2-amine hydrochloride], the IC50 in the series on RT112 [1] worked out at 0.627 µM; in the series on RT4 [2], 1.47 µM; in the series with SNU-16 [3] (setting [11]) it was 0.397 µM; with AN3-CA, 0.738 µM; on FGFR2 kinase (setting [12]), 0.0174 µM.
Regarding `COCCN1CCN(CCc2cccc(Nc3ncc4c(n3)-c3ccccc3[C@H](c3ccccc3F)C4)c2)CC1` [Example 159, (R)-6-(2-fluorophenyl)-N-(3-(2-(4-(2-methoxyethyl)piperazin-1-yl)ethyl)phenyl)-5,6-dihydrobenzo[h]quinazolin-2-amine], the IC50 is 0.1 µM in the series on KATO III [4]; 1 µM in the series with SNU-16 [3] (SNU-16, SNU-16, read-out: MTS IC50); 70 µM in the series with Ba/F3 parental cells; 0.2 µM with SNU-16 [5]; 0.00714 µM and 0.0523 µM at FGFR2 kinase (setting [12]); 0.0004 µM at FGFR2 kinase (read-out: Biochemical IC50). The same molecule displayed an IC50 with KATO III [6] of 0.1 µM.
Regarding `COCCN1CCN(CCc2cc(Nc3ncc4c(n3)-c3ccccc3[C@H](c3ccccc3F)C4)ccc2F)CC1` [Example 175, (R)-N-(4-fluoro-3-(2-(4-(2-methoxyethyl)piperazin-1-yl)ethyl)phenyl)-6-(2-fluorophenyl)-5,6-dihydrobenzo[h]quinazolin-2-amine hydrochloride salt], the IC50 with RT112 [1] is 1.54 µM; in the series on RT4 [2] it was 2.97 µM; in the series with SNU-16 [3] (setting [11]), 1.04 µM; in the series with AN3-CA, 2.39 µM; on FGFR2 kinase (setting [12]), 0.0443 µM.
Taken in the same sequence, the figures for `CN1CCN(CCc2cc(Nc3ncc4c(n3)-c3ccccc3[C@H](c3ccccc3F)C4)ccc2F)CC1` [Example 174, (R)-N-(4-fluoro-3-(2-(4-methylpiperazin-1-yl)ethyl)phenyl)-6-(2-fluorophenyl)-5,6-dihydrobenzo[h]quinazolin-2-amine hydrochloride salt] were 1.52 µM, 3.54 µM, 1.16 µM, 2 µM and 0.0433 µM.
For `COCCNCc1cccc(Nc2ncc3c(n2)-c2ccccc2[C@H](c2ccccc2F)C3)c1` [Example 178, (R)-6-(2-fluorophenyl)-N-(3-((2-methoxyethylamino)methyl)phenyl)-5,6-dihydrobenzo[h]quinazolin-2-amine hydrochloride], the IC50 stood at 2.68 µM in the series on RT112 [1]; 4.28 µM in the series with RT4 [2]; 0.711 µM with SNU-16 [3] (setting [11]); 1.77 µM in the series with AN3-CA; 0.0255 µM on FGFR2 kinase (setting [12]).
`CCN(CC)CCNC(=O)c1c(C)[nH]c(/C=C2\C(=O)Nc3ccc(F)cc32)c1C` [Sunitinib, reference compound]: the concentration for half-maximal inhibition (IC50) with KATO III [4] worked out at 0.3 µM; with SNU-16 [3] (SNU-16, read-out: MTS IC50) it was 1.1 µM; in the series on SNU-16 [5], 4.3 µM; with KATO III [6] it was 1.6 µM.
`Fc1ccccc1[C@@H]1Cc2cnc(Nc3cccc(CCN4CCNCC4)c3)nc2-c2ccccc21` [Example 163, (R)-6-(2-fluorophenyl)-N-(3-(2-(piperazin-1-yl)ethyl)phenyl)-5,6-dihydrobenzo[h]quinazolin-2-amine] showed a melting point of 165 to 167 °C. The IC50 in the series on RT112 [1] came out at 1.19 µM. Besides, the IC50 with RT4 [2] worked out at 1.38 µM. Besides, in the series on SNU-16 [3] (setting [11]), the IC50 is 0.894 µM. In the series on AN3-CA, this molecule showed an IC50 of 1.39 µM. Further, the IC50 at FGFR2 kinase (setting [12]) came to 0.0511 µM.
In the case of `COCCN1CCN(CCc2cccc(Nc3ncc4c(n3)-c3ccccc3[C@H](c3ccccc3F)C4)c2)CC1` [(R)-6-(2-fluorophenyl)-N-(3-(2-(4-(2-methoxyethyl)piperazin-] [(R)-6-(2-fluorophenyl)-N-(3-(2-(4-(2-methoxyethyl)piperazin-1-yl)ethyl)phenyl)-5,6-dihydrobenzo[h]quinazolin-2-amine], the “tumor growth in xenograft models” value in series [7] was “inhibition of tumor growth”. For the same molecule, the combination cytotoxicity result in the series on RT4 [8], in the series on SNU-16 [9], in the series on A549, with CALU-6, in the series with RT112 [10] and with LS174T was “additive cytotoxicity” in each case. Besides, the combination cytotoxicity result in the series with DU4475, with THP-1 and with CAKI-2 was “additive cytotoxicity” in each case. Moreover, the cell cycle profile result with Kato III cells is “arrest of KATO III cells in G1 phase”. Moreover, the “amount of phosphorylated FGFR2” value in the series with FGFR2 in KATO III and in the series on FGFR2 in SNU-16 was “inhibition of autophosphorylation of FGFR2” throughout.
For the molecule `COCCN1CCN(CCc2cccc(Nc3ncc4c(n3)-c3ccccc3[C@@H](c3ccccc3F)C4)c2)CC1` [Example 164, (S)-6-(2-fluorophenyl)-N-(3-(2-(4-(2-methoxyethyl)piperazin-1-yl)ethyl)phenyl)-5,6-dihydrobenzo[h]quinazolin-2-amine], the 50% inhibitory concentration (IC50) with RT112 [1] turned out to be 1.51 µM; in the series on RT4 [2], 2.97 µM; in the series on SNU-16 [3] (setting [11]) it was 1.34 µM; in the series with AN3-CA, 1.38 µM; at FGFR2 kinase (setting [12]) it was 0.047 µM.
